Source: patent US20240410879A1, “NEMATODE-SEALED CAPSULE, METHOD FOR PRODUCING NEMATODE-SEALED CAPSULE, AND USE OF NEMATODE-SEALED CAPSULE” (NATIONAL INSTITUTES FOR QUANTUM SCIENCE AND TECHNOLOGY, priority 2021, published 2024)

Assays:
[1] = system: C. elegans; test: Hatching inhibitor (FUdR) treatment of adult nematodes: hatching of laid eggs on culture plate and in capsule; type: in vivo, Caenorhabditis elegans
Protocol: A dose of a chemical agent required to make all eggs laid by a generation treated with the chemical agent unable to hatch varies depending on, for example, the type, the developmental stage or the sex of the nematode, a type of the chemical agent, or a treatment (exposure) time. For example, in a case where an FUdR solution is added to the culture plate and a nematode which is an adult hermaphrodite of C. elegans prior to laying eggs is exposed to the FUdR solution for a day, a sterilization dose at which the hatching rate of the next generation becomes 0% is not less than 0.5 mg/mL. Exposure of the adult nematode prior to laying eggs to the chemical agent of a dose lower than the sterilization dose allows for making adjustment so that only a certain percentage of eggs hatch.
The nematodes were cultured on the plate to which E. coli had been applied, until the nematodes became adult nematodes (before start of egg laying) on the third day after hatching. FUdR solution was added to this nematode culture plate, and the nematodes were cultured for another day. The FUdR solution was prepared by dissolving 5 mg of FUdR powder in 10 mL of sterile ultrapure water and stirring.
Adult nematodes on the fourth day after hatching which had been exposed to a hatching inhibitor for one day were collected together with E. coli from the culture plate with use of the platinum wire picker. Then, the nematodes were dropped in the aqueous sol which was the same as that prepared in Example 1, so that a sterilized adult nematode sol was prepared. Next, a micropipette was used to suck out the nematode sol. The nematode sol was then dropped in a calcium lactate solution which filled a plastic dish, and immersed in the calcium lactate solution for approximately 5 minutes. The hatching inhibitor-treated nematode-encapsulated capsule in which the adult nematodes that had been exposed to the hatching inhibitor and E. coli that would be food were encapsulated. At the end, a sterilized-nematode-encapsulated capsule was taken out from the calcium lactate solution and an outer phase membrane of this capsule was washed with ultrapure water.
An image of a spherical capsule in which approximately 10 adult nematodes on the fourth day after hatching and having undergone a hatching inhibition treatment by exposure to FUdR were encapsulated was captured from above with use of a digital camera attached to a microscope and the spherical capsule was observed, every 24 hours (every day) from immediately after the production of the spherical capsule. […] After one day and also after two days, it was possible to observe a state in which the adult nematodes moved inside the capsule. […]

[2] = system: C. elegans; details: in vivo
Source text: Next, the nematodes having been grown in the nematode-encapsulated capsule were taken out, and locomotion of the nematodes was observed. As in Example 4, a hatching inhibitor-treated nematode-encapsulated capsule obtained two days after production of the capsule was transferred to a plate A1 with a tweezer, and the capsule was picked a plurality of times with a sterile toothpick, so that the inside of the capsule was exposed.

[3] = system: C. elegans; test: Chemotaxis assay to volatile substance on nematode trap plate A3, nematodes supplied from nematode-encapsulated capsule (Example 10); type: in vivo, Caenorhabditis elegans; details: capsule supply, mean of two assays, FIG. 19
Protocol: An assay for evaluating response of nematodes to a volatile substance was conducted with use of diacetyl (having a molarity of 11.5 M at 15° C.), which is a kind of volatile substance, and diluted solutions prepared by diluting the diacetyl by two different dilution factors of 10 and 10^5. Note that the assay method was a method using a nematode trap plate. […]
Next, several nematode-encapsulated capsules in which nematode eggs were encapsulated and grown to adult nematodes were each picked with a tip of a micropipette chip, so that an outer phase membrane was broken. […] Thereafter, the number of nematodes caught in the fall-in cavities was counted.
Assuming that the total number of nematodes caught in the two left fall-in cavities filled with the test solution was N1 and the total number of nematodes caught in the two right fall-in cavities filled with the control buffer solution was N2, a value obtained according to the following formula was defined as a chemotaxis index (C.I.). Then, the response was evaluated. […]

[4] = system: C. elegans; test: Chemotaxis assay to volatile substance on plate A3, conventional nematode supply method (Comparative Example 2); type: in vivo, Caenorhabditis elegans; details: mean of three assays, FIG. 20
Protocol: Assuming that the total number of nematodes caught in the two left fall-in cavities filled with the test solution was N1 and the total number of nematodes caught in the two right fall-in cavities filled with the control buffer solution was N2, a value obtained according to the following formula was defined as a chemotaxis index (C.I.). Then, the response was evaluated. Chemotaxis index (C. I.)=(N1−N2)/(N1+N2). As Comparative Example, evaluation of response of nematodes was carried out on the basis of a conventionally-known method for supplying nematodes. Used was a plate A3 which was identical to that used in Example 10 and in which two sets of two fall-in cavities were formed on left and right sides in symmetrical positions. A test solution was diluted solutions of diacetyl at two different concentrations as in Example 10. Note that the above dilution was conducted with use of a buffer solution, which served as a control. A nematode liquid containing nematodes having been washed in advance with wash buffer was dropped onto the center of the nematode assay plate, and a liquid component was wiped out with a paper wiper. Then, the nematodes were released on the plate. The plate was covered with a lid and sealed with a paraffin film. […] Thereafter, the number of nematodes caught in the fall-in cavities was counted.

[5] = 10-fold diluted solution of diacetyl
[6] = 10^5-fold diluted solution of diacetyl

SMILES	hatching of eggs laid on culture plate to which FUdR was added ([1]; FUdR solution 5 mg in 10 mL added to culture plate, adults from third day after hatching cultured another day)	sterilization dose at which the hatching rate of the next generation becomes 0% ([1]; FUdR solution added to culture plate, adult hermaphrodite of C. elegans prior to laying eggs exposed for a day)	hatching of eggs laid in capsule by adult nematodes exposed to FUdR ([1]; approximately 10 adults on fourth day after hatching, exposed one day on plate, encapsulated, observed up to two days after production)	hatching result with nematodes cultured for one day in culture solution containing FUdR ([1]; culture solution containing FUdR instead of culture plate, nematode-encapsulated capsule)	locomotion of adult nematodes escaped from capsule [2]	Chemotaxis index (C.I.) [3, 5]	Chemotaxis index (C.I.) [3, 6]	Chemotaxis index (C.I.) [4, 5]	Chemotaxis index (C.I.) [4, 6]
O=c1[nH]c(=O)n([C@H]2C[C@H](O)[C@@H](CO)O2)cc1F [FUdR, 5-Fluoro-2′-deoxyuridine]	the eggs did not hatch	not less than 0.5 mg/mL	did not hatch, and no larvae were observed	a result similar to that obtained by culturing on the culture plate to which the FUdR solution was added could be obtained	No remarkable abnormality in locomotion was observed				
CC(=O)C(C)=O [diacetyl]						negative	positive	negative	positive
